The values that follow come from PMC2504689 (Phytotherapy research : PTR, 2008).

Values after ≈ are worked out from the molar mass of the structure shown.

As a reminder, the IC50 is the midpoint of a concentration-inhibition curve. For orientation: MIC means the lowest concentration found to suppress growth.

The test system of series [1] is M. tuberculosis H37Rv (ATCC 27294). The experiment in a line: Microplate Alamar Blue Assay. The series is classed as cell-based, Mycobacterium tuberculosis. The settings on record: for MIC, H37Rv: MABA, concentration giving ≥ 90% inhibition, 7 days, 37 °C, triplicate; for SI (selectivity index = IC50/MIC), H37Rv: Vero IC50 / MIC H37Rv, limited by 120 μg/ml cytotoxicity cutoff. Background: Alamar Blue is a resazurin reagent that responds to reducing activity.

The format of series [2] is cell-based, African green monkey. The settings on record: African green monkey.
In series [3] the test system is Mycobacterium tuberculosis (H37Rv and ERDMAN). The experiment in a line: MABA, result stated for both strains without assignment. Type of series: cell-based.
Series [4] relates to M. tuberculosis Erdman (ATCC 35801). The experiment in a line: Microplate Alamar Blue Assay. The series is classed as cell-based, Mycobacterium tuberculosis. The settings on record: for MIC, Erdman: MABA, concentration giving ≥ 90% inhibition, 7 days, 37 °C, triplicate; for SI (selectivity index = IC50/MIC), Erdman: Vero IC50 / MIC Erdman, limited by 120 μg/ml cytotoxicity cutoff.

Series [5] concerns Vero cells. The series is classed as cell-based, African green monkey. The following applies: Vero cells, 72 hours; cutoff 120 μg/ml.

In the case of `C=C[C@@H](O)C#CC#C[C@@H](O)/C=C\CCCCCCC` [Compound 1, falcarindiol], in series [1], the “MIC, H37Rv” value amounted to 26.7 µg/mL (≈ 103 µM) and the “SI (selectivity index = IC50/MIC), H37Rv” value is listed as above 4. For the same molecule, the half-inhibitory concentration (IC50) at 72 h in series [2] was above 120 µg/mL. The same molecule gave an MIC in series [3] of 1.4 to 26.7 µg/mL (≈ 5.38 to 103 µM). Also, in series [4], the “MIC, Erdman” value came out at 6.0 µg/mL (≈ 23 µM) and the “SI (selectivity index = IC50/MIC), Erdman” value is reported as above 19.

Turning to `C=CC(O)C#CC#CC(O)/C=C\CCCCCCCCOC(C)=O` (stereo not drawn) [Compound 2, 9Z,17-octadecadiene-12,14-diyne-1,11,16-triol,1-acetate], in series [1], the “MIC, H37Rv” value was found to be 25.3 µg/mL (≈ 76.1 µM) and the “SI (selectivity index = IC50/MIC), H37Rv” value is on record as above 4. In addition, the “Cytotoxicity IC50” value in series [5] is above 120 µg/mL. In addition, in series [4], the “MIC, Erdman” value is 1.4 µg/mL (≈ 4.21 µM) and the “SI (selectivity index = IC50/MIC), Erdman” value is listed as above 100.

Turning to `CCCCCCC/C=C\[C@H](O)C#CC#C[C@@H](O)CC` [Compound 3, oplopandiol], in series [1], the “MIC, H37Rv” value came to 50.2 µg/mL (≈ 191 µM) and the “SI (selectivity index = IC50/MIC), H37Rv” value is above 2. Besides, the IC50 at 72 h in series [2] is above 120 µg/mL. Moreover, in series [4], the “MIC, Erdman” value came out at 49.5 µg/mL (≈ 189 µM) and the “SI (selectivity index = IC50/MIC), Erdman” value is on record as above 2.

For the molecule `C=CC(O)C#CC#CC(O)C1OC1CCCCCCC` (stereo not drawn) [Compound 4, heptadeca-1-ene-9,10-epoxy-4,6-diyne-3,8-diol], the “Cytotoxicity IC50” value in series [5] is above 120 µg/mL.

In the case of `CCCCCCC/C=C\C(O)C#CC#CC(=O)CCOC` (stereo not drawn) [Compound 5, 8-hydroxy-1-methoxy-(Z)-9-heptadecene-4,6-diyn-3-one], in series [1], the “MIC, H37Rv” value is “above 60 μg/mL”. In series [2], this molecule displayed an IC50 at 72 h above 120 µg/mL. Moreover, in series [3], the MIC was above 60 µg/mL. Also, the “MIC, Erdman” value in series [4] was “above 60 μg/mL”.

Regarding `CO[C@H]1/C=C/O[C@@]2(C)Oc3c(C)c(O)c4c(O)c(c(/C=N/N5CCN(C)CC5)c(O)c4c3C2=O)NC(=O)/C(C)=C\C=C\[C@H](C)[C@H](O)[C@@H](C)[C@@H](O)[C@@H](C)[C@H](OC(C)=O)[C@@H]1C` [RMP, Rifampin, reference compound], the “SI (selectivity index = IC50/MIC), H37Rv” value in series [1] turned out to be 1860. In series [2], this molecule yielded an IC50 at 72 h of 112 µg/mL (≈ 136 µM). In series [4], the “SI (selectivity index = IC50/MIC), Erdman” value turned out to be 2232.
